In ChEMBL document CHEMBL1201862, “PubChem BioAssay data set” (2004):
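Tested at 5 concentrations; 48 h exposure; 96-well plates; endpoints linearly interpolated, else capped at highest concentration. GI50 marks 50% less growth.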 The source made the active and inactive calls. Cut-off read from the data, not from the text of the source: active = GI50 up to about 1.1 µM and inactive = higher.

Experiments:
Test in all cases: NCI anticancer screen, dose series, 48 h
MDA-MB-231 = test system: MDA-MB-231
SK-OV-3 = test system: SK-OV-3
SNB-75 = test system: SNB-75
SK-MEL-2 = test system: SK-MEL-2
SNB-19 = test system: SNB-19
PC-3 = test system: PC-3
NCI-H522 = test system: NCI-H522
MCF7 = test system: MCF7
IGROV-1 = test system: IGROV-1
Malme-3M = test system: Malme-3M
NCI-H23 = test system: NCI-H23
BT-549 = test system: BT-549
HOP-62 = test system: HOP-62
HCT-116 = test system: HCT-116
NCI/ADR-RES = test system: NCI/ADR-RES
UO-31 = test system: UO-31
TK-10 = test system: TK-10
SK-MEL-28 = test system: SK-MEL-28
HL-60 = test system: HL-60
SF-268 = test system: SF-268
UACC-257 = test system: UACC-257
K562 = test system: K562
LOX IMVI = test system: LOX IMVI
UACC-62 = test system: UACC-62
NCI-H226 = test system: NCI-H226
COLO 205 = test system: COLO 205
MDA-MB-435 = test system: MDA-MB-435
SK-MEL-5 = test system: SK-MEL-5
Hs-578T = test system: Hs-578T
CAKI-1 = test system: CAKI-1
OVCAR-8 = test system: OVCAR-8
OVCAR-4 = test system: OVCAR-4
M14 = test system: M14
MDA-N = test system: MDA-N
U-251 = test system: U-251
CCRF-CEM = test system: CCRF-CEM
HCT-15 = test system: HCT-15
786-0 = test system: 786-0
A549 = test system: A549
ACHN = test system: ACHN
MOLT-4 = test system: MOLT-4
SR = test system: SR
NCI-H460 = test system: NCI-H460
KM12 = test system: KM12
EKVX = test system: EKVX
HOP-92 = test system: HOP-92
SF-295 = test system: SF-295
T47D = test system: T47D
OVCAR-5 = test system: OVCAR-5
RPMI-8226 = test system: RPMI-8226
OVCAR-3 = test system: OVCAR-3
A498 = test system: A498
HT-29 = test system: HT-29
SN12C = test system: SN12C
RXF 393 = test system: RXF 393
DU-145 = test system: DU-145
SF-539 = test system: SF-539
SW-620 = test system: SW-620

Nc1[nH]nc2ccccc12
GI50 (MDA-MB-231): > 100 µM (inactive)
GI50 (SK-OV-3): > 100 µM (inactive)
GI50 (SNB-75): > 100 µM (inactive)
GI50 (SK-MEL-2): > 100 µM (inactive)
GI50 (SNB-19): > 100 µM (inactive)
GI50 (PC-3): > 100 µM (inactive)
GI50 (NCI-H522): > 100 µM (inactive)
GI50 (MCF7): > 100 µM (inactive)
GI50 (IGROV-1): > 100 µM (inactive)
GI50 (Malme-3M): > 100 µM (inactive)
GI50 (NCI-H23): > 100 µM (inactive)
GI50 (BT-549): > 100 µM (inactive)
GI50 (HOP-62): > 100 µM (inactive)
GI50 (HCT-116): > 100 µM (inactive)
GI50 (NCI/ADR-RES): > 100 µM (inactive)
GI50 (UO-31): 83.4 µM (inactive)
GI50 (TK-10): > 100 µM (inactive)
GI50 (SK-MEL-28): > 100 µM (inactive)
GI50 (HL-60): > 100 µM (inactive)
GI50 (SF-268): > 100 µM (inactive)
GI50 (UACC-257): > 100 µM (inactive)
GI50 (K562): 28.5 µM (inactive)
GI50 (LOX IMVI): > 100 µM (inactive)
GI50 (UACC-62): 73.1 µM (inactive)
GI50 (NCI-H226): > 100 µM (inactive)
GI50 (COLO 205): > 100 µM (inactive)
GI50 (MDA-MB-435): > 100 µM (inactive)
GI50 (SK-MEL-5): > 100 µM (inactive)
GI50 (Hs-578T): > 100 µM (inactive)
GI50 (CAKI-1): > 100 µM (inactive)
GI50 (OVCAR-8): > 100 µM (inactive)
GI50 (OVCAR-4): > 100 µM (inactive)
GI50 (M14): > 100 µM (inactive)
GI50 (MDA-N): > 100 µM (inactive)
GI50 (U-251): > 100 µM (inactive)
GI50 (CCRF-CEM): > 100 µM (inactive)
GI50 (HCT-15): 54.7 µM
GI50 (786-0): > 100 µM (inactive)
GI50 (A549): > 100 µM (inactive)
GI50 (ACHN): > 100 µM (inactive)
GI50 (MOLT-4): > 100 µM (inactive)
GI50 (SR): 62.2 µM (inactive)
GI50 (NCI-H460): > 100 µM (inactive)
GI50 (KM12): > 100 µM (inactive)
GI50 (EKVX): > 100 µM (inactive)
GI50 (HOP-92): > 100 µM (inactive)
GI50 (SF-295): 77.8 µM (inactive)
GI50 (T47D): > 100 µM (inactive)
GI50 (OVCAR-5): 60 µM (inactive)
GI50 (RPMI-8226): > 100 µM (inactive)
GI50 (OVCAR-3): > 100 µM (inactive)
GI50 (A498): > 100 µM (inactive)
GI50 (HT-29): > 100 µM (inactive)
GI50 (SN12C): > 100 µM (inactive)
GI50 (RXF 393): > 100 µM (inactive)
GI50 (DU-145): > 100 µM (inactive)
GI50 (SF-539): > 100 µM (inactive)
GI50 (SW-620): > 100 µM (inactive)

O=C(CSc1nc2ccccc2c2ccccc12)c1ccccc1
GI50 (MDA-MB-231): > 100 µM (inactive)
GI50 (SNB-75): 13.8 µM (inactive)
GI50 (SK-MEL-2): > 100 µM (inactive)
GI50 (SNB-19): > 100 µM (inactive)
GI50 (PC-3): > 100 µM (inactive)
GI50 (NCI-H522): > 100 µM (inactive)
GI50 (MCF7): > 100 µM (inactive)
GI50 (IGROV-1): > 100 µM (inactive)
GI50 (Malme-3M): > 100 µM (inactive)
GI50 (NCI-H23): > 100 µM (inactive)
GI50 (BT-549): > 100 µM (inactive)
GI50 (HOP-62): > 100 µM (inactive)
GI50 (HCT-116): > 100 µM (inactive)
GI50 (NCI/ADR-RES): > 100 µM (inactive)
GI50 (UO-31): > 100 µM (inactive)
GI50 (TK-10): > 100 µM (inactive)
GI50 (SK-MEL-28): > 100 µM (inactive)
GI50 (HL-60): > 100 µM (inactive)
GI50 (SF-268): > 100 µM (inactive)
GI50 (UACC-257): > 100 µM (inactive)
GI50 (K562): > 100 µM (inactive)
GI50 (LOX IMVI): > 100 µM (inactive)
GI50 (UACC-62): > 100 µM (inactive)
GI50 (NCI-H226): > 100 µM (inactive)
GI50 (COLO 205): > 100 µM (inactive)
GI50 (MDA-MB-435): > 100 µM (inactive)
GI50 (SK-MEL-5): > 100 µM (inactive)
GI50 (Hs-578T): 0.0226 µM (active)
GI50 (CAKI-1): > 100 µM (inactive)
GI50 (OVCAR-8): > 100 µM (inactive)
GI50 (OVCAR-4): > 100 µM (inactive)
GI50 (M14): > 100 µM (inactive)
GI50 (MDA-N): > 100 µM (inactive)
GI50 (U-251): > 100 µM (inactive)
GI50 (HCT-15): > 100 µM
GI50 (786-0): > 100 µM (inactive)
GI50 (A549): > 100 µM (inactive)
GI50 (ACHN): > 100 µM (inactive)
GI50 (MOLT-4): > 100 µM (inactive)
GI50 (SR): > 100 µM (inactive)
GI50 (NCI-H460): > 100 µM (inactive)
GI50 (KM12): > 100 µM (inactive)
GI50 (EKVX): > 100 µM (inactive)
GI50 (HOP-92): > 100 µM (inactive)
GI50 (SF-295): > 100 µM (inactive)
GI50 (T47D): > 100 µM (inactive)
GI50 (OVCAR-5): > 100 µM (inactive)
GI50 (RPMI-8226): > 100 µM (inactive)
GI50 (OVCAR-3): > 100 µM (inactive)
GI50 (A498): > 100 µM (inactive)
GI50 (HT-29): > 100 µM (inactive)
GI50 (SN12C): > 100 µM (inactive)
GI50 (RXF 393): > 100 µM (inactive)
GI50 (DU-145): > 100 µM (inactive)
GI50 (SF-539): > 100 µM (inactive)
GI50 (SW-620): > 100 µM (inactive)
